These results are taken from US20070197577A1 (priority 2003, published 2007).

For one data set, the system named is anthrax. The note with it: monkey, in vivo; cited from earlier work.

Take penicillin: the “monkeys that survived a lethal aerosol challenge” value in the data set on anthrax is 7 of 10.

As for `CC(C)CC(NCC(=O)NO)C(=O)NC(Cc1ccc2ccccc2c1)C(=O)NC(C)C(N)=O` (stereo not shown), the melting point was in the range of 205 to 212 °C. For the molecule `O=C(O)c1cn(C2CC2)c2cc(N3CCNCC3)c(F)cc2c1=O` [ciprofloxacin], the “monkeys that survived a lethal aerosol challenge” value in the data set with anthrax is 8 of 9. On to `O=C(O)c1cccc(N(CCc2ccccc2)c2nnc(-c3cccc(Oc4cccc(C(F)(F)F)c4)c3)s2)c1`, for which the melting point lay within 92 to 93 °C.
